Several values for one entry are separate records, joined by “and”; a condition that tells them apart may be missing. Equal values may be shown once. Read-outs that look alike come from different tables or passages of the source.
Target: T1, GLUT1 (Homo sapiens, UniProt P11166)
T1 sequence (P11166 1-492): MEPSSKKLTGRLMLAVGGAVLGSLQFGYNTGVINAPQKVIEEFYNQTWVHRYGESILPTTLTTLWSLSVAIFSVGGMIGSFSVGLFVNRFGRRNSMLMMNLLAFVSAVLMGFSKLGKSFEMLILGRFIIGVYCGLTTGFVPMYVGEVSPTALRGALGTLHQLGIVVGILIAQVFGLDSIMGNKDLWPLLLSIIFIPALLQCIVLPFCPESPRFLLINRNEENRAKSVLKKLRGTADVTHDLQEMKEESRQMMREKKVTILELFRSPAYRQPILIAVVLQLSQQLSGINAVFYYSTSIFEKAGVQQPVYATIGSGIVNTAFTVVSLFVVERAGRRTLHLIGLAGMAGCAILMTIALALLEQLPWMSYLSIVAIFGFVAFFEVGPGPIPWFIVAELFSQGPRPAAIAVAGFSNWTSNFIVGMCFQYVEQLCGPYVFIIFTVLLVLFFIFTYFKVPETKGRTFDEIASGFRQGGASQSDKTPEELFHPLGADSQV
Assay type: binding
Settings: for β (cooperativity parameter, second inhibitor molecule) / γ (hetero-cooperativity parameter) / Inhibition (type of modulation of CB binding) / Ki: 50 nM [3H]-CB; for β (cooperativity parameter, second inhibitor molecule) / γ (hetero-cooperativity parameter) / Ki: 4°C; for β (cooperativity parameter, second inhibitor molecule) / γ (hetero-cooperativity parameter): eqn 6; for Inhibition (type of modulation of CB binding): competing ligand 0 to 100 μM; for ΔΔG°: change in ΔG° relative to baseline cytochalasin or forskolin; for β*γ: product; for Kd: rounded values; for ΔG°: calculated as RT ln(1/KI); for Ki: eqn 6, iterative free [I]

[1] = read-out: KL (Table 3, taken from Table 1), forskolins
[2] = read-out: Ki (affinity of unoccupied GLUT1 for ligand)
[3] = read-out: KL (Table 2, taken from Table 1), cytochalasins

Row | SMILES | β (cooperativity parameter, second inhibitor molecule) | γ (hetero-cooperativity parameter) | Inhibition (type of modulation of CB binding) | ΔΔG° | β*γ | Kd [1] | ΔG° | Ki [2] | also measured
1 | C=C[C@@]1(C)CC(=O)[C@]2(O)[C@@]3(C)[C@@H](OC(C)=O)CCC(C)(C)[C@@H]3[C@H](OC(C)=O)[C@H](OC(C)=O)[C@@]2(C)O1 [1,6DiAFSK, 1,60diacetyl-forskolin] | 1480 ± 268 | 0.489 ± 0.017 | 2 | 0.67 kcal/mol | 724 | 11 nM | – | – | β (cooperativity parameter, second inhibitor molecule) (listed as 1,6DiA-FSK): 1500; γ (hetero-cooperativity parameter) (listed as 1,6DiA-FSK): 0.49
2 | C=C[C@@]1(C)CC(=O)[C@]2(O)[C@@]3(C)[C@@H](OC(C)=O)CCC(C)(C)[C@@H]3[C@H](O)[C@H](OC(C)=O)[C@@]2(C)O1 [1AFSK, 1-acetyl-forskolin] | 11923 ± 8441 | 0.440 ± 0.008 | 2 | -3.85 kcal/mol | 5246 | 3 nM | -10.80 kcal/mol | 3 ± 2 nM | β (cooperativity parameter, second inhibitor molecule) (listed as 1A-FSK): 11923; γ (hetero-cooperativity parameter) (listed as 1A-FSK): 0.44
3 | C=C[C@@]1(C)CC(=O)[C@]2(O)[C@@]3(C)CCCC(C)(C)[C@@H]3[C@H](O)[C@H](OC(C)=O)[C@@]2(C)O1 [1DOFSK, 1-deoxy-forskolin] | 22179 ± 5104 | 0.438 ± 0.017 | 2 | -4.46 kcal/mol | 9714 | 1 nM | -11.41 kcal/mol | 1 ± 0.7 nM | β (cooperativity parameter, second inhibitor molecule) (listed as 1DO-FSK): 22,179 ± 5,104; β (cooperativity parameter, second inhibitor molecule) (listed as 1DeO-FSK): 22000; γ (hetero-cooperativity parameter) (listed as 1DeO-FSK): 0.44
4 | C=C[C@@]1(C)CC(=O)[C@]2(O)[C@@]3(C)[C@@H](O)CCC(C)(C)[C@@H]3[C@H](OC(C)=O)[C@H](O)[C@@]2(C)O1 [6A7DeAFSK, 6-acetyl, 7-deacetyl-forskolin] | – | – | 5 | – | – | – | – | – | –
5 | C=C[C@@]1(C)CC(=O)[C@]2(O)[C@@]3(C)[C@@H](O)CCC(C)(C)[C@@H]3[C@H](O)[C@H](O)[C@@]2(C)O1 [7DeAFSK, 7-deacetyl-forskolin] | ∞ | 0.450 ± 0.008 | 4 | -4.07 kcal/mol | ∞ | 2 nM | -11.02 kcal/mol | 2 ± 2 nM | γ (hetero-cooperativity parameter) (listed as 7DeA-FSK): 0.45 ± 0.01 and 0.45
6 | C=C[C@@]1(C)CC(=O)[C@]2(O)[C@@]3(C)[C@@H](O)CCC(C)(C)[C@@H]3[C@H](O)[C@H](OC(=O)CF)[C@@]2(C)O1 [7FAFSK, 7-fluoroacetyl-forskolin] | 45.3 ± 5.0 | 0.475 ± 0.010 | 2 | -0.91 kcal/mol | 22 | 630 nM | -7.86 kcal/mol | 629 ± 0.644 nM | β (cooperativity parameter, second inhibitor molecule) (listed as 7FA-FSK): 45; γ (hetero-cooperativity parameter) (listed as 7FA-FSK): 0.48
7 | C=C[C@@]1(C)CC(=O)[C@H]2[C@](C)(O1)[C@@H](OC(C)=O)[C@@H](O)[C@H]1C(C)(C)CC[C@H](O)[C@@]12C [9DOFSK, 9-deoxy-forskolin] | 120.3 ± 12.3 | 0.464 ± 0.016 | 2 | -1.12 kcal/mol | 56 | 430 nM | -8.07 kcal/mol | 430 ± 75 nM | β (cooperativity parameter, second inhibitor molecule) (listed as 9DeO-FSK): 120; γ (hetero-cooperativity parameter) (listed as 9DeO-FSK): 0.46
8 | CC[C@@]1(C)CC(=O)[C@@]2(O)[C@]3(C)[C@H](O)CCC(C)(C)[C@H]3[C@@H](O)[C@@H](OC(C)=O)[C@]2(C)O1 [14.15DiHFSK, 14,15-dihydro-forskolin] | 242.7 ± 140 | 0.571 ± 0.015 | 1 | -2.60 kcal/mol | 139 | 30 nM | -9.55 kcal/mol | 29.1 ± 17 nM | β (cooperativity parameter, second inhibitor molecule) (listed as 14,15DiH-FSK): 243; γ (hetero-cooperativity parameter) (listed as 14,15DiH-FSK): 0.6
9 | C=C1[C@@H](C)[C@H]2[C@H](Cc3ccccc3)NC(=O)[C@]23OC(=O)/C=C/C(=O)CCC[C@@H](C)C/C=C/[C@H]3[C@@H]1O [CCA, Cytochalasin A] | 1.11 ± 0.17 | 0.374 ± 0.052 | 2 | 1.17 kcal/mol | 0.42 | – | -7.72 kcal/mol | 815 ± 96 nM | β (cooperativity parameter, second inhibitor molecule) (listed as CA): 1.11; γ (hetero-cooperativity parameter) (listed as CA): 0.38; Kd [3]: 820 nM
10 | CC(=O)O[C@@H]1/C=C\[C@@](C)(O)C(=O)[C@@H](C)C/C=C\[C@H]2[C@H](O)C(C)=C(C)[C@H]3C(Cc4ccccc4)NC(=O)[C@]132 (stereo partly shown) [CCC, Cytochalasin C] | ∞ | 0.433 ± 0.003 | 4 | 1.53 kcal/mol | ∞ | – | -7.35 kcal/mol | 1590 ± 431 nM | γ (hetero-cooperativity parameter) (listed as CC): 0.43; Kd [3]: 1600 nM
11 | C=C1[C@@H](C)[C@H]2[C@H](Cc3ccccc3)NC(=O)[C@]23[C@H](OC(C)=O)/C=C/[C@@](C)(O)C(=O)[C@@H](C)C/C=C/[C@H]3[C@@H]1O [CCD, Cytochalasin D] | 101 ± 61 | 0.557 ± 0.019 | 3 | 1.65 kcal/mol | 51 | – | -7.23 kcal/mol | – | β (cooperativity parameter, second inhibitor molecule) (listed as CD): 101; γ (hetero-cooperativity parameter) (listed as CD): 0.56; Kd (KL (Table 2, taken from Table 1), cytochalasins): 2000 nM; Ki (Ki (affinity of unoccupied GLUT1 for ligand)): 1970 ± 98 nM
12 | C=C1[C@@H](C)[C@H]2[C@H](Cc3ccccc3)NC(=O)[C@]23[C@H](OC(C)=O)/C=C/[C@](C)(O)C[C@@H](C)C/C=C/[C@H]3[C@@H]1O [CCH, Cytochalasin H] | 249 ± 45 | 0.449 ± 0.019 | 2 | 0.00 kcal/mol | 110 | – | -8.88 kcal/mol | 98 ± 3 nM | β (cooperativity parameter, second inhibitor molecule) (listed as CH): 249; γ (hetero-cooperativity parameter) (listed as CH): 0.45; Kd [3]: 100 nM
13 | C=C1[C@@H](C)[C@H]2[C@H](Cc3ccccc3)NC(=O)[C@]23[C@H](O)/C=C/[C@](C)(O)C[C@@H](C)C/C=C/[C@H]3[C@@H]1O [CCJ, Cytochalasin J] | 6399 ± 347 | 0.635 ± 0.013 | 3 | -1.16 kcal/mol | 4063 | – | -10.04 kcal/mol | 12 ± 1 nM | –
